Patent publication US20110039787A1, “COMPOSITIONS, KITS AND METHODS FOR TREATING BENIGN PROSTATE HYPERPLASIA” (priority 2009, published 2011)
Square brackets hold non-standard residues; d marks the D form. Peptide text beside a SMILES is read from it. * marks the point of attachment. dPhe(4-NHCONH2) = NC(=O)Nc1ccc(C[C@@H](N)C(=O)O)cc1; Dihydroorotyl(S) = O=C1C[C@@H](C(=O)*)NC(=O)N1; dPhe(4-Cl) = N[C@H](Cc1ccc(Cl)cc1)C(=O)O; Phe(4-NH2) = Nc1ccc(C[C@H](N)C(=O)O)cc1; d2Nal = N[C@H](Cc1ccc2ccccc2c1)C(=O)O; Lys(iPr) = CC(C)NCCCC[C@H](N)C(=O)O; d3Pal = N[C@H](Cc1cccnc1)C(=O)O

Legend:
men with BPH [1] = assay: Peak (maximal) urinary flow by flowmetry; format: in vivo
Description: (§1) For each patient, the following parameters were measured or assessed (using the methods discussed below), at time points of screening day 0 (e.g., −7 days, “baseline”), day 14, day 28, and day 42:
2) Efficacy Endpoints—the measured Peak Urinary Flow, Post-void Residual Volume, and Prostate Volume.
Peak urinary flow was determined by flowmetry using the Uropower device (Wiest, World of Medicine AG, Germany). The device fulfilled the International Continence Society standards for maximum urinary flow. The measurement of urinary flow was done in a sitting position.
The Qmax is the maximal urinary flow rate. It is a traditional parameter used in BPH trials and is a good indicator of degree of bladder outlet obstruction (BOO).

men with BPH [2] = assay: IPSS questionnaire (sum of scores), clinical trial in BPH patients; format: in vivo
Description: as §1
After the initial 6-week treatment period of the exploratory study had been completed, a 12-month follow-up period looking at long-term efficacy commenced. Interim data of the main efficacy variables (IPSS, IPSS Global QoL, prostate volume, urinary flow, and post-void residual volume—measured as set out below) after 6 months' follow-up are also presented herein at Tables 1, 2, 3, and FIG. 1b. FIG. 1b also includes IPSS data at 9 and 12 months.
The IPSS was developed in 1991 by the American Urological Association to assess the severity of urinary symptoms related to BPH (Barry, M. J., et al., The American Urological Association symptom index for benign prostatic hyperplasia. The Measurement Committee of the American Urological Association. J Urol, 1992. 148(5): p. 1549-57; discussion 1564). The IPSS has been widely used in clinical studies, has undergone extensive validation, and its psychometric properties are well documented in both the original version (containing a 1-month recall) as well as the ‘acute’ version used in this study (containing a one-week recall). The WHO recommended the use of this instrument for the evaluation of BPH, and it is considered to be the internationally accepted, standard questionnaire for assessing lower urinary tract symptoms.
The patients completed the IPSS questionnaire to evaluate their urinary symptoms. The IPSS is a patient-administered questionnaire containing seven items to evaluate symptoms of urinary obstruction (i.e., incomplete emptying, frequency, hesitancy, urgency, weak stream, straining, nocturia) over the preceding week. Each urinary symptom question is assigned points from 0 to 5 indicating increasing severity of the particular symptom. The total score can therefore range from 0 to 35 (0-7: mildly symptomatic; 8-19: moderately symptomatic; 20-35: severely symptomatic). A reduction in total score over the treatment period is indicative of prostate symptom improvement.

testosterone = assay: Serum testosterone concentration-time profile (LC-MS/MS); format: in vivo, men; settings: 32 mg
[3] = across all patient groups, Day 42
[4] = 16+16 mg, Month 6 follow up, n=6
[5] = 32+32 mg, Month 6 follow up, n=7
[6] = all treatment groups (50 patients), Day 42

CC(=O)N[C@H](Cc1ccc2ccccc2c1)C(=O)N[C@H](Cc1ccc(Cl)cc1)C(=O)N[C@H](Cc1cccnc1)C(=O)N[C@@H](CO)C(=O)N[C@@H](Cc1ccc(NC(=O)[C@@H]2CC(=O)NC(=O)N2)cc1)C(=O)N[C@H](Cc1ccc(NC(N)=O)cc1)C(=O)N[C@@H](CC(C)C)C(=O)N[C@@H](CCCCNC(C)C)C(=O)N1CCC[C@H]1C(=O)N[C@H](C)C(N)=O [Degarelix, D-Alaninamide, N-acetyl-3-(2-naphthalenyl)-D-alanyl-4-chloro-D-phenylalanyl-3-(3-pyridinyl)-D-alanyl-L-seryl-4-[[[(4S)-hexahydro-2,6-dioxo-4-pyrimidinyl]carbonyl]amino]-L-phenylalanyl-4-[(aminocarbonyl)amino]-D-phenylalanyl-L leucyl-N6-(1-methylethyl)-L-lysyl-L-prolyl] (Ac-[d2Nal][dPhe(4-Cl)][d3Pal]S[Phe(4-NH2)](Dihydroorotyl(S))[dPhe(4-NHCONH2)]L[Lys(iPr)]P[dA]-NH2)
Mean maximal urinary flow (men with BPH [1]; 32 mg, Day 42 (baseline 11.7)): 11.2 mL/s
Mean maximal urinary flow (men with BPH [1]; 64 mg, Day 42 (baseline 9.1)): 11.9 mL/s
Mean maximal urinary flow (men with BPH [1]; 16+16 mg, Day 42 (baseline 10.0)): 10.1 mL/s
Mean maximal urinary flow (men with BPH [1]; 32+32 mg, Day 42 (baseline 9.7)): 12.2 mL/s
Number of patients in whom maximal urinary flow decreased compared to baseline (men with BPH [1]; [3]): 25 patients
Number of patients in whom maximal urinary flow increased compared to baseline (men with BPH [1]; [3]): 24 patients
Number of patients in whom maximal urinary flow remained unchanged (men with BPH [1]; [3]): 1 patient
Improvements in mean sum of IPSS scores (men with BPH [2]; 32 mg and 32+32 mg groups, 9 and 12 months (FIG. 1b)): still indicated
Mean change from baseline in IPSS score, mean (SD) (men with BPH [2]; 32 mg s.c. (Day 0), Day 14, N=12): −7.8 (8.7)
Percentage responders (decrease in IPSS of at least 30% as compared to baseline) (men with BPH [2]; 32 mg, Day 42): 92%
Mean IPSS score, mean (SD) (men with BPH [2]; 32 mg, Day 42, N=12): 9.1 (6.2)
Mean change from baseline in IPSS score, mean (SD) (men with BPH [2]; 32 mg, Day 42, N=12): −13.2 (6.6)
Mean change from baseline in IPSS score, mean (SD) (men with BPH [2]; 32 mg, Day 42, N=12, listed as degarelix): −13.2
Mean IPSS score, mean (SD) (men with BPH [2]; 32 mg, Month 6 follow up, n=7): 10.4 (6.3)
Mean change from baseline in IPSS score, mean (SD) (men with BPH [2]; 32 mg, Month 6 follow up, n=7): −11.6 (8.3)
Percentage responders (decrease in IPSS of at least 30% as compared to baseline) (men with BPH [2]; 32 mg, Month 6 follow up, n=7): 86%
Mean change from baseline in IPSS score, mean (SD) (men with BPH [2]; 64 mg s.c. (Day 0), Day 14, N=13): −8.0 (4.0)
Percentage responders (decrease in IPSS of at least 30% as compared to baseline) (men with BPH [2]; 64 mg, Day 42): 85%
Mean IPSS score, mean (SD) (men with BPH [2]; 64 mg, Day 42, N=13): 11.8 (5.9)
Mean change from baseline in IPSS score, mean (SD) (men with BPH [2]; 64 mg, Day 42, N=13): −10.0 (5.0)
Mean change from baseline in IPSS score, mean (SD) (men with BPH [2]; 64 mg, Day 42, N=13, listed as degarelix): −10.0
Mean IPSS score, mean (SD) (men with BPH [2]; 64 mg, Month 6 follow up, n=4): 16.0 (8.7)
Mean change from baseline in IPSS score, mean (SD) (men with BPH [2]; 64 mg, Month 6 follow up, n=4): −4.0 (3.6)
Mean change from baseline in IPSS score, mean (SD) (men with BPH [2]; 16+16 mg s.c. (Day 0 + Day 14), Day 14, N=13): −3.2 (5.4)
Percentage responders (decrease in IPSS of at least 30% as compared to baseline) (men with BPH [2]; 16+16 mg, Day 42): 54%
Mean IPSS score, mean (SD) (men with BPH [2]; 16+16 mg, Day 42, N=13): 11.6 (4.5)
Mean change from baseline in IPSS score, mean (SD) (men with BPH [2]; 16+16 mg, Day 42, N=13): −6.1 (4.6)
Mean change from baseline in IPSS score, mean (SD) (men with BPH [2]; 16+16 mg, Day 42, N=13, listed as degarelix): −6.1
Mean IPSS score, mean (SD) (men with BPH [2]; [4]): 16.3 (4.7)
Mean change from baseline in IPSS score, mean (SD) (men with BPH [2]; [4]): −2.5 (4.3)
Percentage responders (decrease in IPSS of at least 30% as compared to baseline) (men with BPH [2]; [4]): 33%
Mean change from baseline in IPSS score, mean (SD) (men with BPH [2]; 32+32 mg s.c. (Day 0 + Day 14), Day 14, N=12): −5.5 (5.0)
Percentage responders (decrease in IPSS of at least 30% as compared to baseline) (men with BPH [2]; 32+32 mg, Day 42): 83%
Mean IPSS score, mean (SD) (men with BPH [2]; 32+32 mg, Day 42, N=12): 8.6 (5.7)
Mean change from baseline in IPSS score, mean (SD) (men with BPH [2]; 32+32 mg, Day 42, N=12): −9.6 (4.7)
Mean change from baseline in IPSS score, mean (SD) (men with BPH [2]; 32+32 mg, Day 42, N=12, listed as degarelix): −9.6
Mean IPSS score, mean (SD) (men with BPH [2]; [5]): 6.7 (4.5)
Mean change from baseline in IPSS score, mean (SD) (men with BPH [2]; [5]): −12.6 (9.6)
Percentage responders (decrease in IPSS of at least 30% as compared to baseline) (men with BPH [2]; [5]): 86%
Number of patients categorised as "mild" (IPSS 0-7) (men with BPH [2]; [6]): 17 patients
Number of patients categorised as "moderate" (IPSS 8-19) (men with BPH [2]; [6]): 31 patients
Number of patients categorised as "severe" (IPSS 20-35) (men with BPH [2]; [6]): 2 patients
Greatest change from baseline in mean testosterone (testosterone): -4.2 ng/mL
Mean minimal value of testosterone (Cnadir) (testosterone): 0.9 ng/mL
